We go through one compound from patent publication US20250199015A1, “CYCLIN-DEPENDENT KINASE 2 INHIBITORS FOR MEDICAL TREATMENT” (INCYCLIX BIO, LLC, priority 2022, published 2025).

≈ marks a conversion by molar mass, not a printed value. Like-named read-outs stand apart in the source and are kept apart here.

In one series the test system is H526 cells. In words: Cell cycle by EdU flow cytometry (nocodazole release, time course, cisplatin combination). The series is classed as cell-based, human. The note with it: 300 nM. The procedure: The H526 human lung carcinoma cell line was grown in RPMI-1640/1× Glutamax/10% fetal bovine serum and was plated at 200,000 cells/well in Corning 6 well tissue culture treated plates. Cells were incubated at 37° C. for 24 hours prior to addition of 50 ng/mL nocodazole to arrest the cells in G2/M. One plate was untreated for comparison. After 16 hours, the asynchronous well and one synchronized well were collected. […] Cells were incubated with 10 μM EdU for 1 hour prior to collected and were then fixed in 1% paraformaldehyde. Cells were incubated with Pacific blue azide dye as described by Thermo Scientific. Cells were then incubated with FarRed dye and RNase. Cells were analyzed on a BD Celesta and data compiled using FloJo and GraphPad (FIG. 23). Cells survived slightly better with lower nocodazole dose (50 vs 100 ng/mL) but there was still cell death observed, particularly following S phase after release.
The H526 human lung carcinoma cell line was grown in RPMI-1640/1× Glutamax/10% fetal bovine serum and was plated at 200,000 cells/well in Corning 6 cm tissue culture treated plates. […] Cells were treated for the indicated amount of time, with 10 μM EdU added for the last hour of treatment. Cells were collected and fixed in 1% paraformaldehyde. Cells were incubated with Alexa 488 azide dye as described by Thermo Scientific. Cells were then incubated with FarRed dye and RNase. Cells were analyzed on a BD Celesta and data compiled using FloJo and GraphPad (FIG. 24).
The H526 human lung carcinoma cell line was grown in RPMI-1640/1× Glutamax/10% fetal bovine serum and was plated at 200,000 cells/well in Corning 6 cm tissue culture treated plates. Cells were incubated at 37° C. for 24 hours prior to addition of the first treatment. […] Cells were treated to 24 hours post-initial treatment, with 10 μM EdU added at hour 23 (FIG. 28A). Cells were collected and fixed in 1% paraformaldehyde. Cells were incubated with pacific blue azide dye as described by Thermo Scientific. Cells were then incubated with antibody against γ-H2AX at a ratio of 1:50 before incubation with FarRed dye and RNase. Cells were analyzed on a BD Celesta and data compiled using FloJo and GraphPad.
(A flow cytometer gives signals particle by particle.)

Series [1] has as its system OVCAR-3 cell loaded Hollow Fibers. In words: Mouse hollow fiber assay (CellTiter Glo). The series is classed as in vivo, mice. The note with it: 75, 100, 150 mg/kg twice daily, Day 16. The procedure: The mouse hollow fiber assay was conducted using three tumor cell lines, OVCAR-3 (ovarian), MKN-1 (gastric), and HCC-1569 (breast), 1e7 OVCAR-3, 5e6 MKN-1, and 1e7 HCC-1569 cells were loaded into Hollow Fibers, placed in cell culture dishes containing RPMI-1640 with 20% FCS and 1% penicillin/streptomycin, and were equilibrated in an incubator at 37 C, 5% CO2 overnight. On Day 0, three fibers were implanted in two different compartments: subcutaneous and intraperitoneal of twenty-four female NMRI nude mice ages 4-5 weeks. […] Female NMRI nude mice were implanted both subcutaneously and intraperitoneally with HCC-1569, MKN1, and OVCAR3 tumor cell-loaded Hollow Fibers on Day 0. The number of animals alive on Day 0 (implantation) and on Day 16 (necropsy) in each group is shown in parentheses in the legend.
OVCAR-3 cell loaded Hollow Fibers were implanted both subcutaneously and intraperitoneally into female NMRI nude mice on Day 0. Hollow Fibers were collected during necropsy on Day 16 and analyzed using a CellTiter Glo® assay.

Series [2] in a line: Approximate solvent solubility of free base. The series is classed as physicochemical. The method, then:
The following procedure was carried out: 25, 50 and 100 μL aliquots of the appropriate solvent system was added to 20 mg of free base. The experiments were checked for dissolution. Where dissolution was not observed, the experiments were stirred at 40° C. to check for dissolution at elevated temperature. Aliquots of solvent were added until dissolution was observed, or 2 mL of total solvent was added. Any clear solutions were uncapped and allowed to evaporate at ambient temperature (ca. 20° C.) and pressure. Any slurries were isolated by centrifugation and the solids were analyzed by XRPD.

Series [3] can be described thus: Bidirectional permeability (A-B, B-A Papp). The series is classed as in vitro ADME.
In series [4] the test system is pRb (S780) in therapy-resistant T47D/MCF7M cells. In words: Western blot Rb phosphorylation in therapy-resistant cells. The series is classed as cell-based, human. The note with it: combined with a CDK4/6i and/or estrogen therapy, 7 days. The procedure:
Retinoblastoma (Rb) phosphorylation status analysis was then conducted in therapy-resistant cells by Western blotting. The T47D human breast carcinoma cell line was grown in RPMI-1640/1× Glutamax/1× Insulin/10% fetal bovine serum and was plated in Corning 6 well tissue culture treated plates. Cells were incubated at 37° C. for 24 hours prior to addition of treatment. Treatments were either DMSO, Compound I, or abemaciclib alone, or Compound I in combination with abemaciclib. Cells were treated for 7 days. All Abemaciclib treated cells received 500 nM Abemaciclib. […] Supernatant was removed, pellet resuspended in 250 μL of 1× Cell Lysis buffer (CST #9803, 1 tablet of PhosSTOP, 1 tablet of complete Protease Inhibitor Cocktail in 5 mL) then incubated on ice for 20 mins. Lysate was centrifuged at 21,000×g for 20 min at 4° C. and supernatant transferred to clean tubes. A DC assay was performed to determine the protein concentration of each lysate. 20 μg of protein was mixed with Laemelli buffer (+5% BME) before being run on homemade 15% gels. For samples normalized to cell number (p-RB and total RB), cells were washed in ice-cold PBS. Cells were counted and 500,000 cells were aliquoted into clean tubes. Cells were centrifuged at 500×g for 4 mins at 4° C. and supernatant discarded. Cell pellets were directly lysed in 100 μL of Laemmli buffer (+5% BME) and boiled at 95° C. for 12 min. […]
On the technique in general: In western blotting, separated proteins are transferred to a membrane and probed.

Turning to `NS(=O)(=O)c1ccc(Nc2ncc3cc4n(c3n2)C2(CCCCC2)C(=O)NN4)cc1` [Compound I], the “S phase entry after nocodazole release” value in the series on H526 cells is listed as “slower to enter S phase”. For the same compound, the “cells in G1 phase compared with PF-07104091” value in the series with H526 cells (24 hours) is reported as “Substantially fewer H526 cells treated with Compound I were in G1 phase”. Further, the “cells in G2/M phase compared to control” value with H526 cells (24 hours) was “increase of cells in G2/M phase”. The “cells in S phase compared with PF-07104091” value in the series with H526 cells (48 hours) was “substantially fewer H526 cells treated with Compound I were in S phase”. In series [1], the “tumor bioluminescence signal (CellTiter Glo) of Hollow Fibers” value was “significant reduction”. Besides, the Solubility in series [2] (2-Methyl-THF), in series [2] (2-Propanol), in series [2] (2-Propanol:Water (80:20 % v/v)), in series [2] (Acetone), in series [2] (Anisole) and in series [2] (Ethanol) was under 10000 µg/mL throughout. In addition, the Solubility (commonly the concentration that dissolves in the medium under given conditions) was under 10000 µg/mL in series [2] (Ethyl Acetate); under 10000 µg/mL in series [2] (Methylethyl Ketone); 22000 µg/mL (≈ 51.5 mM) in series [2] (N,N-dimethylacetamide, organic solvent or mixture, thermodynamic from solid, read-out: Solubility); under 10000 µg/mL in series [2] (Tetrahydrofuran); under 10000 µg/mL in series [2] (Toluene); 88000 µg/mL (≈ 206 mM) in series [2] (dimethylsulfoxide, organic solvent or mixture, thermodynamic from solid, read-out: Solubility). Further, the permeability result in series [3] is listed as “moderate permeability”. Besides, the Papp A→B (commonly the apparent permeability from the apical to the basolateral side of a cell layer) in series [3] (not told) is 3.28 to 6.67 ×10⁻⁶ cm/s. Also, the basolateral-to-apical permeability (Papp B→A) (as a rule, how fast a substance crosses the layer from the basolateral side) in series [3] (not told) fell in the range of 42 to 68.3 ×10⁻⁶ cm/s. The “Rb phosphorylation in therapy-resistant cells” value in series [4] was “prevents the phosphorylation”.
